The subject of data set [1] is production of TNFα in U937. Description: Releasing TNFα from U937 induced by LPS. Format: cell-based. As to conditions: Homo sapiens, U-937; PMA-differentiated U937, LPS 100 ng/ml, 4 h; read-out: IC50 value that the compound inhibits the production of TNFα. The method, boiled down:
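U937 cells differentiated with PMA (20 ng/ml, 48 h) were pretreated with compound (0.1% DMSO final) for 30 min at 37 °C, then stimulated with LPS (100 ng/ml) for 4 h. Supernatant TNFα was quantified by ELISA against a kit standard curve, and IC50 came from nonlinear fitting.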

The target in data set [2] is p38β (Homo sapiens, UniProt Q15759). Description: p38β kinase screening experiment (ADP-Glo). The class given is biochemical. The protocol:
A certain amount of the compound is weighed, prepared into a 10/50 mM mother solution with DMSO, diluted 3 folds with DMSO, and diluted to 10 concentration points as a compound working solution.
50 nL of the diluted compound working solution is transferred to each well of a reaction plate (784075, Greiner) with Echo 655, then 2.5 μL (2 ng/μL) of a p38β kinase solution is added; after 10 minutes at room temperature, 2.5 μL of a mixed solution of a kinase substrate (0.4 mg/mL) and ATP (100 μM) is added, for reaction for 60 min at room temperature; and 4 μL of an ADP Glo reagent is added, for incubation for 40 min at room temperature. 8 μL of a kinase detection reagent is added, for incubation for 40 min at room temperature; and finally a light-emitting signal is read on Envision 2104.
For orientation: ADP-Glo turns the ADP formed in a reaction into a luminescent signal.

Data set [3] deals with p38α/MK2 complex (Homo sapiens, UniProt P49137+Q16539). Description: p38α/MK2 complex kinase screening experiment (IMAP FP). The class given is biochemical. As to conditions: p38α 0.2 nM, MK2 unactive 1 nM, HSP27 substrate 1 μM, ATP 10 μM; read-out: IC50 value that the compound inhibits p38α/MK2 complex. The protocol:
A certain amount of a drug is weighted and prepared into a 10 mM of mother solution by using DMSO; the mother solution is diluted to 100 μM (100× working solution) in two steps; and then, the solution is diluted 3-fold to 33.33 μM, 11.11 μM, 3.70 μM, 1.23 μM, 0.41 μM, 0.14 μM, 0.046 μM, 0.015 μM, and 0.005 μM, successively. DMSO control is also arranged.
Then, a series of diluted DMSO drugs are diluted 25 folds with 1×IMAP Reaction Buffer as a 4× drug working solution.
10 gradient concentrations and 2 duplicated wells are set to each group of compounds; and a DMSO control group and a negative control group (DMSO, no ATP) are additionally set.
• c), after 1 h of incubation at room temperature, 1× Progressive Binding Solution is added to end the enzymatic reaction; after 30 min of incubation, a BMGPHERASTER FSX multifunctional microplate reader is used to detect a Fluorescence Polarization (FP) signal [FP(Ex485/Em520/Em520 nm)].

Data set [4] in a line: Determination of solubility. Format: physicochemical. As to conditions: aqueous buffer, thermodynamic from solid, 37° C. 1 h. How it is done:
About 0.5 mg of a to-be-tested sample in a centrifuge tube is weighted, an appropriate amount of DMSO is added to completely dissolve the sample, and then methanol is added to make up to 1 ml.
(If there are more pH values to be investigated, the preparation method may be deduced by analogy).
3. The prepared control solution and test solution are simultaneously put into a 37° C. water bath and heated for 1 h, after 1 h, the solutions are taken out and cooled to room temperature, and then the solutions are filtered with a 0.22 μm filter membrane for sample injection.
4. The concentration of the sample in the test solution is calculated according to C=(A*(ms/vs))/AS, and experiment results are shown in Table 2.
Note: ms, vs and AS are the weight, volume and peak area of the sample in the control solution, respectively.
A is the peak area of the test solution.

Values after ≈ are worked out from the molar mass of the structure shown.

Chain of p38β (Q15759 whole entry): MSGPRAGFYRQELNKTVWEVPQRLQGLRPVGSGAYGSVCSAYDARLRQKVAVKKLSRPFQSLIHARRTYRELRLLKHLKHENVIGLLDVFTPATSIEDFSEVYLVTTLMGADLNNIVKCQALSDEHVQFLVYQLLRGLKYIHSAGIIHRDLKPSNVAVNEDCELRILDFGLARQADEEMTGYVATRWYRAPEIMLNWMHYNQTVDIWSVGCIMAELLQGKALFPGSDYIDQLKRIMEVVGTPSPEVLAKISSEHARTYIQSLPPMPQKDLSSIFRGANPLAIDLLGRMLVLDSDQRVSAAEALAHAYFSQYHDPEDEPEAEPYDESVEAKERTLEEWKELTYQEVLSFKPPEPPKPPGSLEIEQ
Chain of p38α/MK2 complex (Q16539 whole entry): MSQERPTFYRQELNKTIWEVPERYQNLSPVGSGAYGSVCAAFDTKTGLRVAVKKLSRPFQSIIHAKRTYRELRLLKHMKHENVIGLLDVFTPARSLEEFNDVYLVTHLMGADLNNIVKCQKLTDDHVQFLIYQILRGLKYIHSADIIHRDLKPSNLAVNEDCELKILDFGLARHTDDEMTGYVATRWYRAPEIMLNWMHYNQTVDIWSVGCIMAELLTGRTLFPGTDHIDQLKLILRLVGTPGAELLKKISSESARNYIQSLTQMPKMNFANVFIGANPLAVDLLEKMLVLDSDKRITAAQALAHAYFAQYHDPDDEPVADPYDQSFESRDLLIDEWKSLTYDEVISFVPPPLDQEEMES
Chain of p38α/MK2 complex (P49137 whole entry): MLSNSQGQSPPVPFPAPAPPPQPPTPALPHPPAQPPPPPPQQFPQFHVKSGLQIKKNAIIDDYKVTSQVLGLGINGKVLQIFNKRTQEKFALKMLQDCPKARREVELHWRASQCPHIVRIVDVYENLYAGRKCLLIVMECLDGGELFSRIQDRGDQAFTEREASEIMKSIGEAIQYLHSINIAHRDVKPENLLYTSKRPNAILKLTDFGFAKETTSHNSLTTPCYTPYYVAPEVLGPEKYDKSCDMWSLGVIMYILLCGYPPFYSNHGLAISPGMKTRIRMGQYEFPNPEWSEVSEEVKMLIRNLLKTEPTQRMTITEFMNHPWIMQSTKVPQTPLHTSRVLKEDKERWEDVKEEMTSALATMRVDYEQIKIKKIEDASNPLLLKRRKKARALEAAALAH

As to `Cc1cnc(-n2cccc(C(C)(C)O)c2=O)cc1-n1c(C)cc(OCc2ncc(F)cc2F)c(Cl)c1=O` [Comparative example 1], the IC50 in data set [1] was determined as 1.63 nM; in data set [2] (ATP 100 μM in the substrate/ATP mix, 60 min, read-out: IC50 value that the compound inhibits p38β), 4100 nM; in data set [3], 2.6 nM. Further, the “Activity multiple relative to p38β/(p38α/MK2 complex)” value in data set [2] (ratio of p38β IC50 to p38α/MK2 complex IC50 of Embodiment 50) is 1575. For the same compound, the solubility at 1 h stood at 427 µg/mL (≈ 807 µM) in data set [4] (pH = 2.0, PBS buffer) and 595 µg/mL (≈ 1130 µM) in data set [4] (pH = 7.4, PBS buffer).

For orientation: solubility means the concentration that dissolves in the medium under given conditions.
